Laboratory results as given in patent publication US20120035206A1, “PREPARATION AND APPLICATION OF NOVEL ANTIBACTERIAL AND ANTICANCER COMPOUNDS AND THEIR DERIVATIVES” (priority 2009, published 2012).
Values after ≈ are worked out from the molar mass of the structure shown.

Experiments:
Format in all cases: cell-based
E. floccosum = assay: In vitro antibacterial (antifungal) test, two-fold dilution MIC; conditions: Epidermophyton floccosum, RPMI 1640, culture 2-7 days
Protocol: (§1) In vitro antibacterial experiments of 25 compounds as anti-bacterial and anti-cancer compounds in the patent were tested using 14 kinds of bacteria. Tested bacteria: C. albicans, C. tropicalis, C. neoformans, E. floccosum, M. gypseum, A. niger, S. schenekn, C. parapsilosis, C. glabrata, C. Krusei, Trichoderma, Gibberella, Setrosphaeria turcica, Fusarium Oxysporum Vasinfectum. (Bacteria were from the Dermatology Hospital of Chinese Academy of Medical Sciences, Nanjing, China.)
(§2) The Preparation of tested Bacteria solution was following: incubated Bacteria were added to 5 ml physiological saline, and then they were mashed and placed with ultrasound. The solution was fully mixed, and insoluble substances were removed. The treated solution was called the original bacterium solution. In the test, the bacteria concentration in the original bacterium solution was adjusted to […].
(§3) Tested Methods: the tested compounds were dissolved in dimethyl sulfoxide. and the solution was diluted with sterile distilled water. And the distilled solution was added to sterilized RPMI 1640 medium. The concentration of the compounds were adjusted to 256, 128, 64, 32, 16, 8, 4, 2, 1, 0.5, 0.25, 0.125 ug*ml-1. Then the adjusted solutions were inoculated with tested bacteria, and the tested systems were placed in the constant temperature oven to culture for 2-7 days. The concentration at which there was no growing of fungi was taken as the minimum inhibitory concentration (MIC).

S. schenekn = assay: as above; conditions: RPMI 1640, culture 2-7 days
Protocol: as §1, §2, §3

C. albicans = assay: as above; conditions: Candida albicans, read-out: MIC C. albicas
Protocol: as §1, §2, §3

Terchoderma = assay: as above; conditions: Trichoderma, RPMI 1640, culture 2-7 days
Protocol: as §1, §2, §3

C. Krusei = assay: as above; conditions: Pichia kudriavzevii, RPMI 1640, culture 2-7 days
Protocol: as §1, §2, §3

[1] = test system: Fusarium oxysporum vasinfectum; assay: as above; conditions: RPMI 1640, culture 2-7 days
Protocol: as §1, §2, §3

Setosphaeria turcica = assay: as above; conditions: Exserohilum turcicum, RPMI 1640, culture 2-7 days
Protocol: as §1, §2, §3

C. tropicalis = assay: as above; conditions: Candida tropicalis, RPMI 1640, culture 2-7 days
Protocol: as §1, §2, §3

C. neoformans = assay: as above; conditions: Cryptococcus neoformans, RPMI 1640, culture 2-7 days
Protocol: as §1, §2, §3

M. gypseum = assay: as above; conditions: Nannizzia gypsea, RPMI 1640, culture 2-7 days
Protocol: as §1, §2, §3

gibberella = assay: as above; conditions: RPMI 1640, culture 2-7 days
Protocol: as §1, §2, §3

C. parapsilosis = assay: as above; conditions: Lodderomyces parapsilosis, RPMI 1640, culture 2-7 days
Protocol: as §1, §2, §3

C. glabrata = assay: as above; conditions: Nakaseomyces glabratus, RPMI 1640, culture 2-7 days
Protocol: as §1, §2, §3

FTC 133 = assay: In vitro anticancer MTT experiment; conditions: Homo sapiens, concentration 5 ug/ml, 48 h or 72 h, read-out: inhibition ratio FTC 133
Protocol: (§4) In vitro anticancer experiments of 25 compounds as anti-bacterial and anti-cancer compounds in the patent were tested. In the test, 14 kinds of cancer cells were used as tested cancer cells. And the results obtained by MTT method were shown in table 2 (the inhibition ratio was obtained when the concentration was 5 ug/ml). Tested Cancer Cells: SGC7901, HTB-38HT-29, CRL-2233NU-398, CRL-1469PANC-1, B0192, HTB-131MDA-453, CRL-1435PC-3, FTC133, AS24391, HTB-95637. (Cancer cells were from Chinese Military Academy of Medical Sciences). Cells Culture: Culture solution was composed of RPMI 1640 medium, 10% (VAT) Fetal calf serum and 0.01% L-glutamine. Cultured cells were maintained at 37° C. in an incubator with 5% CO2. The cells at logarithmic growth phase were used in the experiment. MTT Experiment: Single cell suspension was obtained by digesting cells with 0.25% trypsin. The cells at logarithmic growth phase were collected and seeded in a 96-well plate at a concentration of 6000-7000 cells per well. After culturing for 12 h at 37° C. in the incubator with 5% CO2, the cells were again incubated with the tested compounds of various concentrations for 48 h or 72 h. Pure cultures and cells without drug were taken as blank reference and negative reference, and 8 Wells of each group were taken. Twenty microliter of MTT (5 mg/mL) was added to each well, and the mixed solutions were incubation for 4 h. The formazan product was dissolved by dimethyl sulfoxide (DMSO, 150 μL), and the optical density (O.D.) was read at 570 nm. The Inhibition Ratio was calculated by the following formula: Inhibition Ratio=(Anegative control−Asample)/(Anegative control−Ablank control)

HTB-131MDA-MB-453 = assay: In vitro anticancer MTT experiment; conditions: concentration 5 ug/ml, 48 h or 72 h, read-out: inhibition ratio HTB-131MDA-MB-453
Protocol: as §4

SGC7901 = assay: In vitro anticancer MTT experiment; conditions: Homo sapiens, SGC-7901, concentration 5 ug/ml, 48 h or 72 h, read-out: inhibition ratio SGC7901
Protocol: as §4

HTB-95637 = assay: In vitro anticancer MTT experiment; conditions: concentration 5 ug/ml, 48 h or 72 h, read-out: inhibition ratio HTB-95637
Protocol: as §4

CRL-1435PC-3 = assay: In vitro anticancer MTT experiment; conditions: concentration 5 ug/ml, 48 h or 72 h, read-out: inhibition ratio CRL-1435PC-3
Protocol: as §4

AS24391 = assay: In vitro anticancer MTT experiment; conditions: concentration 5 ug/ml, 48 h or 72 h, read-out: inhibition ratio AS24391
Protocol: as §4

B01092 = assay: In vitro anticancer MTT experiment; conditions: concentration 5 ug/ml, 48 h or 72 h, read-out: inhibition ratio B01092
Protocol: as §4

CRL-1469PANC-1 = assay: In vitro anticancer MTT experiment; conditions: concentration 5 ug/ml, 48 h or 72 h, read-out: inhibition ratio CRL-1469PANC-1
Protocol: as §4

HTB-94 = assay: In vitro anticancer MTT experiment; conditions: concentration 5 ug/ml, 48 h or 72 h, read-out: inhibition ratio HTB-94
Protocol: as §4

L1210 = assay: In vitro anticancer MTT experiment; conditions: Mus musculus, concentration 5 ug/ml, 48 h or 72 h, read-out: inhibition ratio L1210
Protocol: as §4

A375 = assay: In vitro anticancer MTT experiment; conditions: Homo sapiens, A-375, concentration 5 ug/ml, 48 h or 72 h, read-out: inhibition ratio A375
Protocol: as §4

L428 = assay: In vitro anticancer MTT experiment; conditions: Homo sapiens, L-428, concentration 5 ug/ml, 48 h or 72 h, read-out: inhibition ratio L428
Protocol: as §4

HTB-38HT-29 = assay: In vitro anticancer MTT experiment; conditions: concentration 5 ug/ml, 48 h or 72 h, read-out: inhibition ratio HTB-38HT-29
Protocol: as §4

CRL-2233SNU-398 = assay: In vitro anticancer MTT experiment; conditions: concentration 5 ug/ml, 48 h or 72 h, read-out: inhibition ratio CRL-2233SNU-398
Protocol: as §4

Row | SMILES | MIC (E. floccosum) [µg/mL] | MIC (S. schenekn) [µg/mL] | MIC (C. albicans) [µg/mL] | MIC (Terchoderma) [µg/mL] | MIC (C. Krusei) [µg/mL] | MIC [1] [µg/mL] | MIC (Setosphaeria turcica) [µg/mL] | MIC (C. tropicalis) [µg/mL] | MIC (C. neoformans) [µg/mL] | MIC (M. gypseum) [µg/mL] | MIC (gibberella) [µg/mL] | MIC (C. parapsilosis) [µg/mL] | MIC (C. glabrata) [µg/mL] | inhibition at 5 µg/mL (FTC 133) [%] | inhibition at 5 µg/mL (HTB-131MDA-MB-453) [%] | inhibition at 5 µg/mL (SGC7901) [%] | inhibition at 5 µg/mL (AS24391) [%] | inhibition at 5 µg/mL (B01092) [%] | inhibition at 5 µg/mL (HTB-94) [%] | inhibition at 5 µg/mL (L1210) [%] | also measured
1 | Cc1cc2c(cc1F)CS/C(=C\Br)C2=O [Compound 16, (Z)-3-(bromomethylene)-7-fluoro-6-methylisothiochroman-4-one] | 16 (≈ 55.7 µM) | 8 (≈ 27.9 µM) | 32 (≈ 111 µM) | 16 (≈ 55.7 µM) | 32 (≈ 111 µM) | 16 (≈ 55.7 µM) | 32 (≈ 111 µM) | 32 (≈ 111 µM) | 4 (≈ 13.9 µM) | 16 (≈ 55.7 µM) | 32 (≈ 111 µM) | 4 (≈ 13.9 µM) | 4 (≈ 13.9 µM) | 46.5 | 46.3 | 56.7 | 57.8 | 60.4 | 63.2 | 85.9 | inhibition at 5 µg/mL (HTB-95637): 36%; inhibition at 5 µg/mL (CRL-1435PC-3): 56.9%; inhibition at 5 µg/mL (CRL-1469PANC-1): 57.9%; inhibition at 5 µg/mL (A375): 30.5%; inhibition at 5 µg/mL (L428): 43.1%; inhibition at 5 µg/mL (HTB-38HT-29): 48%
2 | O=C1/C(=C\Cl)CSc2sccc21 [Compound 24, (E)-5-(chloromethylene)-5,6-dihydro-4H-thieno[2,3-b]thiopyran-4-one] | 16 (≈ 73.8 µM) | 32 (≈ 148 µM) | 16 (≈ 73.8 µM) | 16 (≈ 73.8 µM) | 32 (≈ 148 µM) | 16 (≈ 73.8 µM) | 16 (≈ 73.8 µM) | 8 (≈ 36.9 µM) | 16 (≈ 73.8 µM) | 8 (≈ 36.9 µM) | 4 (≈ 18.5 µM) | 4 (≈ 18.5 µM) | 16 (≈ 73.8 µM) | 45.8 | 47.6 | 33.9 | 37 | 56.8 | 51.3 | 85.4 | inhibition at 5 µg/mL (CRL-1435PC-3): 39.4%; inhibition at 5 µg/mL (CRL-2233SNU-398): 45.6%; inhibition at 5 µg/mL (A375): 32.5%; inhibition at 5 µg/mL (L428): 47.7%; inhibition at 5 µg/mL (HTB-38HT-29): 43.4%
3 | O=C1/C(=C/Cl)SCc2ccc(F)cc21 [Compound 15, (Z)-3-(chloromethylene)-6-fluoroisothiochroman-4-one] | 8 (≈ 35 µM) | 32 (≈ 140 µM) | 8 (≈ 35 µM) | 32 (≈ 140 µM) | 32 (≈ 140 µM) | 8 (≈ 35 µM) | 16 (≈ 70 µM) | 4 (≈ 17.5 µM) | 32 (≈ 140 µM) | 4 (≈ 17.5 µM) | 16 (≈ 70 µM) | 16 (≈ 70 µM) | 4 (≈ 17.5 µM) | 45.9 | 58 | 47.6 | 46.8 | 49.5 | 60.5 | 80.9 | inhibition at 5 µg/mL (CRL-2233SNU-398): 45%; inhibition at 5 µg/mL (CRL-1469PANC-1): 36.8%; inhibition at 5 µg/mL (A375): 60.2%; inhibition at 5 µg/mL (L428): 55.4%; inhibition at 5 µg/mL (HTB-38HT-29): 57%
